# Source: publication PMC8406298, “Discovery of Fungus-Specific Targets and Inhibitors Using Chemical Phenotyping of Pathogenic Spore Germination” (mBio, 2021)
# Assays:
# [1] = tested on: normal human dermal fibroblasts (NHDF) cells; assay: Fibroblast cytotoxicity (CellTiter-Glo); type: cell-based; settings: 10 µM
# Procedure: PrimaPure normal human dermal fibroblasts (NHDF) cells (Genlatis PH10605A) were cultured and passaged in fibroblast growth medium (Genlatis PM116500) according to the manufacturer’s protocol. NHDF cells (1 × 10^3 per well) were plated in a 384-well plate in cell culture medium. The cells were incubated with each compound of interest at 10 μM concentration for 72 h at 37°C and 5% CO2. Following treatment, CellTiter-Glo (Promega) reagent was used to assay ATP-dependent luminescence and thus provide a measure of cell viability. […] For cytotoxicity dose-response curves (Fig. 4C and Fig. 5C), compounds were titrated from 80 μM to 0.5 μM in duplicates.
# [2] = tested on: Cryptococcus yeast (CHY3833 and CHY3836); assay: Yeast replication secondary screen (OD600); type: cell-based, Cryptococcus neoformans serotype D (deneoformans); settings: 10 μM, 12 h at 30°C
# Procedure: (ii) Yeast replication. CHY3833 and CHY3836 were each grown in YPD liquid overnight at 30°C to saturation and then resuspended in 0.5× YPD at an OD600 of 0.005. Strains were aliquoted into 384-well plates with inhibitors and grown for 12 h at 30°C at […] before OD600 readings were taken. Compounds that caused a >10% decrease in growth were considered yeast growth inhibitors.
SMILES,Cytotoxicity: Relative Cell Viability (% of Negative Control) [1],Yeast Inhibition: % Inhibition [2] [%]
Cc1cccc2nc(CSC(=S)NCc3cccnc3)cn12 [compound 957599],10.0 % of Negative Control,59.9
C=C(C)Cn1c(Cc2ccc(OC)cc2)nc2ccccc21 [compound 962333],73.9 % of Negative Control,53.4
Nc1nc(COc2ccc3ccccc3c2)cs1 [compound 973573],108.1 % of Negative Control,75.7
O=S(=O)(Nc1ccc(Br)cc1F)c1cccc(Cl)c1 [compound 983861],101.6 % of Negative Control,55.6
CCOC(=O)c1c(-c2ccc(C)o2)csc1NC(=O)c1ccc2c(c1)OCCO2 [compound 1186249],75.3 % of Negative Control,44.6
COC(=O)c1sc(S(=O)(=O)Nc2cccc(C(F)(F)F)c2)c(C(=O)OC)c1C [compound 1190482],90.9 % of Negative Control,2.5
O=C1NC(=S)S/C1=C\c1ccccc1F [compound 1204290],92.9 % of Negative Control,71.4
Cn1c(=O)c(Nc2ccc(O)cc2)c2c3c(cccc31)C(=O)c1ccccc1-2 [compound 1263311],86.6 % of Negative Control,-2.6
O=S(=O)(Nc1ccc(Br)cc1F)c1ccc(Cl)c(C(F)(F)F)c1 [compound 1307471],98.7 % of Negative Control,59.9
O=C(NN1C(=O)/C(=C\c2ccco2)SC1=S)c1ccc(OC(F)F)cc1 [compound 1391595],93.6 % of Negative Control,65.6
O=C(Nc1cccc(C(F)(F)F)c1)C1=Cc2ccccc2OC1 [compound 1475928],58.1 % of Negative Control,77.9
O=C(NCCc1ccccc1)c1n[nH]c2ccccc12 [compound 1505880],87.7 % of Negative Control,77.5
Cc1c(-n2c(-c3ccccc3)csc2=NC(=O)c2ccccc2)c(=O)n(-c2ccccc2)n1C [compound 1528700],93.1 % of Negative Control,-8.8
CCCCNC(=O)COc1c(C)cc(Br)cc1C [compound 1570496],84.5 % of Negative Control,47.1
Cc1ccccc1OCCSCc1nc2ccccc2[nH]1 [compound 1589778],86.0 % of Negative Control,72.5
Clc1ccc(OCCSCc2nc3ccccc3[nH]2)cc1 [compound 1589789],74.0 % of Negative Control,79.6
O=C1/C(=C/c2ccncc2)SC(=S)N1Nc1ccccc1 [compound 1636480],86.8 % of Negative Control,67.7
CCCOc1ccc(CSc2nc3ccccc3[nH]2)cc1 [compound 1653621],75.1 % of Negative Control,77.4
CC(=O)c1ccc(OCCOc2ccc(C#N)cc2)cc1 [compound 1713451],106.4 % of Negative Control,41.1
CC(C)(c1ccc(O)cc1)c1ccc(Cl)cc1 [compound 1992009],2.1 % of Negative Control,96.6
COc1ccc(CCNc2ncnc3scc(-c4cccs4)c23)cc1OC [compound 2008712],97.9 % of Negative Control,68.9
O=C(NCc1ccco1)c1sc2ccccc2c1Cl [compound 2049334],88.3 % of Negative Control,53.3
Cc1cc(C)c2sc(NN)nc2c1 [compound 2049855],38.9 % of Negative Control,100.6
CCCCSc1nc2ccc(C)cc2[nH]1 [compound 2129690],104.3 % of Negative Control,80.1
Cc1ccc(S(=O)(=O)Nc2cc(Sc3nc[nH]n3)c(O)c3ccccc23)c(C)c1 [compound 2133779],3.5 % of Negative Control,98.3

SMILES,Cytotoxicity: Relative Cell Viability (% of Negative Control) [1],Yeast Inhibition: % Inhibition [2] [%]
Cc1nc(NC(=O)CCl)sc1C(=O)OCC(C)C [compound 2139195],6.3 % of Negative Control,99.1
COc1ccc(NC(=O)CN2CCN(c3c(C)cccc3C)CC2)cc1 [compound 2200363],71.8 % of Negative Control,64.6
c1nc(N2CCCCCC2)c2ccsc2n1 [compound 2238990],79.6 % of Negative Control,57.0
CC1CCN(c2ncnc3sccc23)CC1 [compound 2238992],70.0 % of Negative Control,73.6
Cc1nc(NCc2ccccc2)c2ccsc2n1 [compound 2238994],75.7 % of Negative Control,84.9
Cc1nc(NC2CCCCC2)c2ccsc2n1 [compound 2239015],75.4 % of Negative Control,45.4
O=c1/c(=C/c2ccc(F)cc2F)sc2nc3ccccc3n12 [compound 2354424],81.4 % of Negative Control,88.9
FC(F)(F)c1cccc(N2CCN(c3ncnc4sccc34)CC2)c1 [compound 2497352],96.2 % of Negative Control,92.5
CC(C)(C)NCC(O)COc1ccc(C23CC4CC(CC(C4)C2)C3)cc1 (centres unmarked) [compound 2769740],2.7 % of Negative Control,101.5
NNc1nc2cc3c(cc2s1)OCCO3 [compound 2771030],94.3 % of Negative Control,99.1
O=Cc1sc(=O)n(-c2ccccc2)c1Cl [compound 2793380],5.7 % of Negative Control,78.0
O=S1(=O)CCC(NC(=S)SCc2ccccc2)C1 (centres unmarked) [compound 2831154],24.3 % of Negative Control,48.2
Cc1ccc(N2C(=O)C=CC2=O)c([N+](=O)[O-])c1 [compound 2834581],4.3 % of Negative Control,101.2
C=CCN(CC=C)CC(O)CN1c2ccccc2Sc2ccccc21 (centres unmarked) [compound 2896856],5.4 % of Negative Control,43.9
Cc1ccc(N2C(=O)CC(Sc3ccccc3C(=O)O)C2=O)c(Br)c1 (centres unmarked) [compound 2919713],94.3 % of Negative Control,67.2
ClC1(Cl)CC1Cn1cnc2ccccc21 (centres unmarked) [compound 2936975],93.7 % of Negative Control,49.3
O=C1c2ccccc2S(=O)(=O)N1CC(O)COc1ccc(Cl)cc1Cl (centres unmarked) [compound 2943193],90.5 % of Negative Control,57.4
Cc1ccc(N2C(=O)CC(Sc3ccccc3C(=O)N3CCOCC3)C2=O)cc1 (centres unmarked) [compound 2951953],94.9 % of Negative Control,52.3
CCOC(=O)c1ccc(NC(=O)CC2Sc3ncnn3C2=O)cc1 (centres unmarked) [compound 2954695],99.4 % of Negative Control,101.7
NS(=O)(=O)c1ccc(NC(=O)CSC2CC(=O)N(c3ccc(Br)cc3)C2=O)cc1 (centres unmarked) [compound 2974037],102.2 % of Negative Control,90.7
CN(C)S(=O)(=O)N1CCN(CC(O)COc2ccc3cc(Br)ccc3c2)CC1 (centres unmarked) [compound 2981975],88.7 % of Negative Control,70.4
CCn1c(CSc2ccccc2)nc2ccccc21 [compound 2992099],99.2 % of Negative Control,59.0
ClC(Cl)(c1nnnn1-c1ccccc1)c1nnnn1-c1ccccc1 [compound 3090522],90.6 % of Negative Control,87.7
CC1Cc2ccccc2N1C(=O)CCn1c(=O)sc2ccccc21 (centres unmarked) [compound 3163780],59.5 % of Negative Control,-1.3
